Molecular target: T1, Aromatic-L-amino-acid decarboxylase (Mus musculus) (UniProt O88533)
T1 sequence (whole entry): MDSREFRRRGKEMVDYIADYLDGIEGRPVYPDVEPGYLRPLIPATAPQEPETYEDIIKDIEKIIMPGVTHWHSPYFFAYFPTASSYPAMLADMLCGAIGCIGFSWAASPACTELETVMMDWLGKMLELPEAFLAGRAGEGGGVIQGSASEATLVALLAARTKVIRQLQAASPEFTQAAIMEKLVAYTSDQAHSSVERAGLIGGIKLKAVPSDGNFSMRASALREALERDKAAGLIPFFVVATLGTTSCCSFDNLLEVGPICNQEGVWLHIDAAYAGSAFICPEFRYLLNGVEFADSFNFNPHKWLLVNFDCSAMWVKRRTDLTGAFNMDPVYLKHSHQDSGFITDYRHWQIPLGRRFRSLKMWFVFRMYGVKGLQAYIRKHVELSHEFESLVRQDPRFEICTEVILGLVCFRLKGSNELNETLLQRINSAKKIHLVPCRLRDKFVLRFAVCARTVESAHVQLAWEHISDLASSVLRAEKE
Experiment: First-order inactivation rate constant (k2) was evaluated as an inhibitor of murine liver aromatic L-amino acid decarboxylase (AADC)

- k2: 2.26 min⁻¹
SMILES: N[C@@](CF)(Cc1c[nH]c2ccc(O)cc12)C(=O)O
